Measured values from US20190105367A1, “ANTIMICROBIAL 4-OXOQUINOLIZINES” (Emergent Product Development Gaithersburg Inc., priority 2011, published 2019).
Where two headings read alike, the source gives them in different places.

How the values were obtained:
A. baumannii J2 = assay: MIC without and with sub-inhibitory polymyxin B (Example 4); assay type: cell-based, Acinetobacter baumannii; settings: for MIC without PB/MIC + PB: A. baumannii J2; for MIC: Acinetobacter baumannii
A. baumannii A473 [1] = assay: as above; assay type: cell-based, Acinetobacter baumannii; settings: +0.06 μg/ml PB, 2nd experiment
A. baumannii A14 [2] = assay: Preliminary MBC without and with sub-inhibitory polymyxin B (Example 4); assay type: cell-based, Acinetobacter baumannii; settings: 2nd experiment
Summary of the method: (§1)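 After plating, cultures are held at 37° C for 18-20 hours; the endpoint is then scored by comparing colony growth against the positive control, with MBC defined as the lowest concentration showing roughly 90% reduction.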

A. baumannii A390 [3] = assay: as above; assay type: cell-based, Acinetobacter baumannii; settings: Acinetobacter baumannii, A390, A. baumannii A390, +0.06 μg/ml PB, 2nd experiment, read-out: MBC
Summary of the method: as §1

A. baumannii A473 [4] = assay: as above; assay type: cell-based, Acinetobacter baumannii; settings: Acinetobacter baumannii, A473, A. baumannii A473, +0.06 μg/ml PB, 2nd experiment, read-out: MBC
Summary of the method: as §1

A. baumannii NCTC 13301 [5] = assay: as above; assay type: cell-based, Acinetobacter baumannii; settings: Acinetobacter baumannii
Summary of the method: as §1

A. baumannii A472 [6] = assay: as above; assay type: cell-based, Acinetobacter baumannii; settings: Acinetobacter baumannii, preliminary MBC
A. baumannii NCTC 13301 [7] = assay: MIC without and with sub-inhibitory polymyxin B (Example 4); assay type: cell-based, Acinetobacter baumannii; settings: +[…] PB, 2nd experiment
A. baumannii A14 [8] = assay: as above; assay type: cell-based, Acinetobacter baumannii; settings: 2nd experiment
A. baumannii NCTC 13301 [9] = assay: as above; assay type: cell-based, Acinetobacter baumannii
[10] = test system: Acinetobacter sp. (H064200250); assay: as above; assay type: cell-based; settings: for MIC: Acinetobacter
A. baumannii ATCC 19606 [11] = assay: Preliminary MBC without and with sub-inhibitory polymyxin B (Example 4); assay type: cell-based, Acinetobacter baumannii; settings: Acinetobacter baumannii
A. baumannii A329 = assay: MIC without and with sub-inhibitory polymyxin B (Example 4); assay type: cell-based, Acinetobacter baumannii; settings: A. baumannii A329; +0.06 μg/ml PB; 2nd experiment
A. baumannii A387 [12] = assay: Preliminary MBC without and with sub-inhibitory polymyxin B (Example 4); assay type: cell-based, Acinetobacter baumannii; settings: Acinetobacter baumannii
A. baumannii A489 = assay: MIC without and with sub-inhibitory polymyxin B (Example 4); assay type: cell-based, Acinetobacter baumannii; settings: for MIC without PB/MIC + PB: A. baumannii A489; for MIC: Acinetobacter baumannii
A. baumannii ATCC 19606 [13] = assay: as above; assay type: cell-based, Acinetobacter baumannii; settings: for MIC without PB/MIC + PB: A. baumannii ATCC 19606; for MIC: Acinetobacter baumannii
A. baumannii A14 [14] = assay: Preliminary MBC without and with sub-inhibitory polymyxin B (Example 4); assay type: cell-based, Acinetobacter baumannii; settings: A. baumannii A14, preliminary MBC, 1st experiment
A. baumannii A401 [15] = assay: as above; assay type: cell-based, Acinetobacter baumannii; settings: Acinetobacter baumannii
A. baumannii A14 [16] = assay: MIC without and with sub-inhibitory polymyxin B (Example 4); assay type: cell-based, Acinetobacter baumannii; settings: 1st experiment
A. baumannii A390 [17] = assay: as above; assay type: cell-based, Acinetobacter baumannii; settings: +0.06 μg/ml PB, 2nd experiment
[18] = test system: strains of A. baumannii and one strain of Acinetobacter sp.; assay: MIC with sub-inhibitory concentrations (0.25x MIC) of polymyxin B, panel of Acinetobacter strains (Example 4); assay type: cell-based
A. baumannii A472 [19] = assay: MIC without and with sub-inhibitory polymyxin B (Example 4); assay type: cell-based, Acinetobacter baumannii; settings: for MIC: Acinetobacter baumannii
A. baumannii A401 [20] = assay: as above; assay type: cell-based, Acinetobacter baumannii; settings: for MIC: Acinetobacter baumannii
A. baumannii A387 [21] = assay: as above; assay type: cell-based, Acinetobacter baumannii; settings: for MIC without PB/MIC + PB: A. baumannii A387
[22] = A. baumannii A14, +0.06 μg/ml PB
[23] = ratio, PB 0.06 μg/ml, 1st experiment

Cc1c(-c2cc(Cl)c(N)c(Cl)c2)ccn2c(=O)c(C(=O)O)cc(C3CC3)c12 [Compound 3, 8-(3,5-dichloro-4-amino-phenyl)-1-cyclopropyl-9-methyl-4-oxo-quinolizine-3-carboxylic acid]
16: MIC without PB/MIC + PB ([10]; Acinetobacter spp. H064200250, ratio, PB […], 1st experiment)
≥8: MIC without PB/MIC + PB (A. baumannii ATCC 19606 [13]; +0.06 μg/ml PB, 2nd experiment) | MIC without PB/MIC + PB (A. baumannii ATCC 19606 [13]; [23])
0.25 mg/L: MBC (A. baumannii A472 [6]; A472, read-out: MBC +[…] PB, A. baumannii A472, +[…] polymyxin B, 1st experiment) | MBC (A. baumannii A387 [12]; A387, read-out: MBC +0.06 μg/ml PB, A. baumannii A387, +0.06 μg/ml polymyxin B, 1st experiment)
≤0.03 to 1 mg/L: MIC range with PB (0.25x MIC) Oct. 1, 2008 n = 8 ([18]; 1st experiment, […] polymyxin B, ATCC 19606, A329, A390 and A473 not taken)
0.06 mg/L: MBC (A. baumannii A473 [4]) | MIC ([10]; Acinetobacter spp. H064200250 (OXA51), +[…] PB, 2nd experiment, read-out: MIC) | MIC (A. baumannii A489; A489, read-out: MIC +[…] PB, A. baumannii A489, +[…] polymyxin B, 1st experiment)
0.125 mg/L: MIC (A. baumannii J2; J2, read-out: MIC +[…] PB, A. baumannii J2, +[…] polymyxin B, 1st experiment) | MBC (A. baumannii A14 [2]; [22]) | MBC (A. baumannii A390 [3]) | MIC (A. baumannii A14 [8]; [22]) | MBC (A. baumannii A401 [15]; A401, A baumannii A 401, +0.06 μg/ml PB, 2nd experiment, read-out: MBC) | MBC (A. baumannii A401 [15]; A401, read-out: MBC +0.06 μg/ml PB, A baumannii A 401, +0.06 μg/ml polymyxin B, 1st experiment) | MIC (A. baumannii A390 [17]; Acinetobacter baumannii, A390, A. baumannii A390, read-out: MIC) | MIC (A. baumannii A401 [20]; A401, A baumannii A 401, +0.06 μg/ml PB, 2nd experiment, read-out: MIC) | MIC (A. baumannii A401 [20]; A401, read-out: MIC +0.06 μg/ml PB, A baumannii A 401, +0.06 μg/ml polymyxin B, 1st experiment)
256: MIC without PB/MIC + PB ([10]; Acinetobacter spp. H064200250 (OXA51), +[…] PB, 2nd experiment)
≤ 0.03 mg/L: MIC (A. baumannii J2; J2, A. baumannii J2, +[…] PB, 2nd experiment, read-out: MIC) | MIC (A. baumannii A473 [1]; Acinetobacter baumannii, A473, A. baumannii A473, read-out: MIC) | MBC (A. baumannii NCTC 13301 [5]; NCTC13301, A. baumannii NCTC 13301, +[…] PB, preliminary MBC, 2nd experiment, read-out: MBC) | MBC (A. baumannii A472 [6]; A472, A. baumannii A472, +[…] PB, 2nd experiment, read-out: MBC) | MIC (A. baumannii NCTC 13301 [7]; Acinetobacter baumannii, NCTC13301, A. baumannii NCTC 13301, read-out: MIC) | MBC (A. baumannii ATCC 19606 [11]; ATCC19606, A. baumannii ATCC 19606, +0.06 μg/ml PB, 2nd experiment, read-out: MBC) | MBC (A. baumannii ATCC 19606 [11]; ATCC19606, read-out: MBC +0.06 μg/ml PB, A. baumannii ATCC 19606, +0.06 μg/ml polymyxin B, 1st experiment) | MBC (A. baumannii A387 [12]; A387, A. baumannii A387, +0.06 μg/ml PB, 2nd experiment, read-out: MBC) | MIC (A. baumannii A489; A489, A. baumannii A489, +[…] PB, 2nd experiment, read-out: MIC) | MIC (A. baumannii ATCC 19606 [13]; ATCC19606, A. baumannii ATCC 19606, +0.06 μg/ml PB, 2nd experiment, read-out: MIC) | MIC (A. baumannii ATCC 19606 [13]; ATCC19606, read-out: MIC +0.06 μg/ml PB, A. baumannii ATCC 19606, +0.06 μg/ml polymyxin B, 1st experiment) | MIC (A. baumannii A472 [19]; A472, A. baumannii A472, +[…] PB, 2nd experiment, read-out: MIC) | MIC (A. baumannii A387 [21]; Acinetobacter baumannii, A387, read-out: MIC +0.06 μg/ml PB, A. baumannii A387, +0.06 μg/ml polymyxin B, 1st experiment)
> 32 mg/L: MBC (A. baumannii A14 [2]; Acinetobacter baumannii, A14, A. baumannii A14, without PB, read-out: MBC) | MIC (A. baumannii A14 [8]; Acinetobacter baumannii, A14, A. baumannii A14, without PB, read-out: MIC) | MBC (A. baumannii A14 [14]; Acinetobacter baumannii, without polymyxin B, read-out: MBC without PB) | MIC (A. baumannii A14 [16]; Acinetobacter baumannii, 24 h, without polymyxin B, read-out: MIC without PB)
≥128: MIC without PB/MIC + PB (A. baumannii A489; +[…] PB, 2nd experiment)
≤0.03 to 0.5 mg/L: MIC range with PB (0.25x MIC) Oct. 14, 2008 n = 11 ([18]; 2nd experiment, 0.06 μg/ml polymyxin B, all strains except the ATCC strain)
64: MIC without PB/MIC + PB (A. baumannii J2; ratio, PB […], 1st experiment) | MIC without PB/MIC + PB (A. baumannii A489; ratio, PB […], 1st experiment) | MIC without PB/MIC + PB (A. baumannii A472 [19]; A. baumannii A472, ratio, PB […], 1st experiment) | MIC without PB/MIC + PB (A. baumannii A401 [20]; A baumannii A 401, ratio, PB 0.06 μg/ml, 1st experiment)
≥64: MIC without PB/MIC + PB (A. baumannii NCTC 13301 [9]; A. baumannii NCTC 13301, ratio, PB […], 1st experiment)
≥32: MIC without PB/MIC + PB (A. baumannii A14 [16]; ratio, PB 0.06 μg/ml) | MIC without PB/MIC + PB (A. baumannii A387 [21]; +0.06 μg/ml PB, 2nd experiment) | MIC without PB/MIC + PB (A. baumannii A387 [21]; [23])
32: MIC without PB/MIC + PB (A. baumannii A329)
0.5 mg/L: MBC (A. baumannii NCTC 13301 [5]; NCTC13301, read-out: MBC +[…] PB) | MIC (A. baumannii NCTC 13301 [9]; Acinetobacter baumannii, NCTC13301, read-out: MIC +[…] PB) | MIC ([10]; read-out: MIC +[…] PB, Acinetobacter spp. H064200250, +[…] polymyxin B, 1st experiment) | MIC (A. baumannii A472 [19]; A472, read-out: MIC +[…] PB, A. baumannii A472, +[…] polymyxin B, 1st experiment)
1 mg/L: MBC +0.06 μg/ml PB (A. baumannii A14 [14]; +0.06 μg/ml polymyxin B) | MIC +0.06 μg/ml PB (A. baumannii A14 [16]; +0.06 μg/ml polymyxin B)
≥256: MIC without PB/MIC + PB (A. baumannii A473 [1]; A. baumannii A473) | MIC without PB/MIC + PB (A. baumannii A14 [8]; [22]) | MIC without PB/MIC + PB (A. baumannii A390 [17]; A. baumannii A390)
≥1024: MIC without PB/MIC + PB (A. baumannii J2; +[…] PB, 2nd experiment) | MIC without PB/MIC + PB (A. baumannii NCTC 13301 [7]; A. baumannii NCTC 13301)
